Data: ChEMBL document CHEMBL1147703, “Synthesis of a potent 5'-methylthioadenosine/S-adenosylhomocysteine (MTAN) inhibitor” (Bioorg Med Chem Lett, 2006)

Target: 5'-methylthioadenosine/S-adenosylhomocysteine nucleosidase (Escherichia coli O157:H7, UniProt P0AF14)
Test: Inhibition of Escherichia coli MTAN

Sequence of 5'-methylthioadenosine/S-adenosylhomocysteine nucleosidase (P0AF14 whole entry): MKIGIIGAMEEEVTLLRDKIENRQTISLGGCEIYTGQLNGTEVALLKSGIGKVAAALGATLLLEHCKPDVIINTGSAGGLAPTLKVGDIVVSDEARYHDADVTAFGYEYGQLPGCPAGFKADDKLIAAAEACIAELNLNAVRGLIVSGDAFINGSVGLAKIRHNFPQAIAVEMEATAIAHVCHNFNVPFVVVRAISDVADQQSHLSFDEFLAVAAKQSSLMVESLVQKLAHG

Q: Which Ki does the source give for `Nc1ncnc2c([C@@H]3N[C@H](CSCCC(N)C(=O)O)[C@@H](O)[C@H]3O)c[nH]c12` (stereo partly specified) here?
A: Its Ki is 1.7 nM.
